Values joined by “and” are separate entries in the source; they are usually repeats but may differ in a detail not shown here. Equal entries are not always repeated.
Key:
[1] = Antibiotic suppression of gut microbiota: TCS colonic metabolism in mice (80 ppm TCS diet, 4 weeks); type: in vivo; conditions: 80 ppm TCS via diet 4 weeks; antibiotic cocktail vs none
Source text: This antibiotic composition was used in previous studies by others[20],[21] and us[22],[23]. […] After another 4 weeks, the mice were sacrificed, and their tissues were collected for LC-MS/MS analysis.

[2] = LC-MS/MS of TCS and its metabolites in human stool and urine after use of TCS-containing personal care products; type: in vivo; conditions: for TCS metabolites in human stool / TCS metabolites in human urine: Treatment TCS, individual subjects;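 as to Profile in stool (%): molar share of summed TCS plus TCS-G plus TCS-sulfate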;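 as to Profile in urine (%): molar share of summed TCS plus TCS-G plus TCS-sulfate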;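 as to average molar concentration ratio: molar share of summed TCS plus TCS-G plus TCS-sulfate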
Source text: To broaden our understanding of TCS metabolic profiles in the gut, we next analyzed TCS metabolism in human subjects. We utilized urine and stool samples from a previous study in which the recruited human subjects were first subjected to a washout period (no usage of TCS-containing products), then were randomly assigned to two groups that used personal care products like toothpaste with or without TCS for up to four months (see the scheme of the experiment in Fig. 1c)[15]. Previous data had established that humans are primarily exposed to TCS via toothpaste that provides a direct oral route to the gastrointestinal tract[16],[17].

[3] = Antibiotic suppression of gut microbiota: kinetics of TCS colonic metabolism after one-time oral gavage; conditions: within the 24-h period; 8 mg/kg TCS oral gavage
MC38 cells = experiment: Inflammatory response of MC38 intestinal epithelial cells (Il-6 RT-qPCR, IL-6 ELISA); type: cell-based, mouse
Protocol: MC38 intestinal epithelial cells were cultured in Dulbecco’s Modified Eagle Medium (DMEM) supplemented with 10% fetal bovine serum (FBS) and incubated at 37 °C under an atmosphere of 5% CO2. MC38 cells were seeded at 20% confluency and left to settle overnight. Cells were then treated with either 1 μM TCS, TCS-G, or vehicle (DMSO). After 48 h, cells were harvested for RT-qPCR analysis. Cell medium was collected for ELISA analysis using the CBA Mouse Inflammation Kit (BD Sciences) according to the manufacturer’s instructions, and data were acquired using a BD LSR Fortessa flow cytometer (BD Biosciences) and analyzed using FlowJo software (Treestar).
Total RNA of colon tissues and MC38 cells were isolated using Trizol reagent (Ambion) according to the manufacturer’s instruction. RNA was reverse transcribed into cDNA using the High Capacity cDNA Reverse Transcription kit (Applied Biosystem) according to the manufacturer’s instructions. In all, 20 μL PCR reactions were prepared using the Maxima SYBR Green Master Mix (Thermo Fisher Scientific), and qPCR was carried out using a DNA Engine Opticon System (Bio-Rad Laboratories). Mouse-specific primer sequences (Thermo Fisher Scientific) used to detect inflammatory biomarkers are listed in Supplementary Table S6. Gapdh expression was used as an internal control.
a. Cultured murine intestinal epithelial MC38 cells were treated with 1 μM of TCS or TCS-G for 48 h prior to
studying inflammatory responses. b. TCS increases the expression of Il-6, which encodes the pro-inflammatory
n = 3 per group from three independent experiments, * P < 0.05, ** P < 0.01, *** P < 0.001.

[4] = LC-MS/MS profiling of TCS metabolism in mice (TCS via diet for 4 weeks); conditions: for concentration of free TCS in the colon digesta: mean; for concentration of TCS, TCS-G, TCS-Sulfate: individual mice
[5] = Target engagement: GUSi in colon tissue and TCS to TCS-G ratio in colon digesta by LC-MS/MS; type: in vivo, mice; conditions: TCS-treated mice, no GUSi, individual mice
Protocol: After another 3 weeks, the mice were stimulated with 2% DSS (molecular weight = 36–50 KDa, MP Biomedicals, Solon, OH) in drinking water for 6 days to induce colitis. At end of the experiment, the mice were sacrificed for analysis.
Fig. S15. Orally dosed GUSi reaches the mouse colon and suppresses conversion of TCS -G to TCS. a.
mice were stimulated with DSS to induce colitis. The final GUSi was dosed on day 25 and mice were sacrificed
for analysis on day 27. b. GUSi is detected in the mouse colon 2 days after the final dose of the inhibitor. c.
GUSi treatment reduces the ratio of TCS to TCS-G in colon digesta.
per group. NA: no TCS or TCS-G detected.

[6] = TCS colonic metabolism in conventional vs germ-free Swiss Webster mice; type: in vivo; conditions: 6 h after oral gavage of 8 mg/kg TCS, individual mice
[7] = treatment time 0 months (after washout)
[8] = human stool, TCS-exposed subjects
[9] = human urine, TCS-exposed subjects

Oc1cc(Cl)ccc1Oc1ccc(Cl)cc1Cl [TCS, Triclosan]
change of concentration in the fecal content by antibiotic treatment [1]: significantly reduced
Profile in urine (%) ([2]; TCS-exposed human subjects, n=7 urine samples): 1.57%
Profile in stool (%) ([2]; TCS-exposed human subjects, n=23 stool samples): 99.16%
TCS metabolites in human stool [2, 7]: < LOD and 12.62 pmol/ g stool and 10.84 pmol/ g stool and 388.08 pmol/ g stool and 57.90 pmol/ g stool
TCS metabolites in human urine [2, 7]: < LOD
TCS metabolites in human stool ([2]; treatment time 1 month): 1094.80 pmol/ g stool and 225.14 pmol/ g stool and 1049.03 pmol/ g stool and 626.33 pmol/ g stool and 215.36 pmol/ g stool and 317.47 pmol/ g stool
TCS metabolites in human urine ([2]; treatment time 1 month): < LOD
TCS metabolites in human stool ([2]; treatment time 2 months): 372.82 pmol/ g stool and 713.18 pmol/ g stool and 245.09 pmol/ g stool and 96.24 pmol/ g stool and 905.85 pmol/ g stool
TCS metabolites in human urine ([2]; treatment time 2 months): 8.55 nM urine
TCS metabolites in human stool ([2]; treatment time 3 months): 515.81 pmol/ g stool and 334.49 pmol/ g stool and 515.22 pmol/ g stool and 400.99 pmol/ g stool and 445.98 pmol/ g stool and 105.82 pmol/ g stool
TCS metabolites in human urine ([2]; treatment time 3 months): < LOD
TCS metabolites in human stool ([2]; treatment time 4 months): 633.76 pmol/ g stool and 67.29 pmol/ g stool and 968.25 pmol/ g stool and 633.96 pmol/ g stool and 135.75 pmol/ g stool and 295.56 pmol/ g stool
TCS metabolites in human urine ([2]; treatment time 4 months): 3.06 nM urine and 6.42 nM urine and 11.23 nM urine and 5.52 nM urine
average molar concentration ratio [2, 8]: 99.2%
concentration of free TCS measured in stool (highest) [2, 8]: ≤ 1 pmol/mg tissue
concentration of free TCS measured in stool (highest), equated [2, 8]: ~ 1 µM
TCS concentrations in urine [2, 9]: low-nM range
average molar concentration ratio [2, 9]: 1.6%
reduction of AUC in colon digesta by antibiotic treatment [3]: ~ 40%
Il-6 gene expression (MC38 cells; 1 µM, 48 h): increased
medium concentration of IL-6 (ELISA) (MC38 cells; 1 µM, 48 h): increased
Il-6 (Fig. S16b) (MC38 cells; MC38 cells, gene expression, replicates): 2.497 and 4.058 and 2.001 and 8.229 and 6.742 and 2.645 and 3.872 and 1.125 and 4.892
IL-6 (Fig. S16c) (MC38 cells; MC38 cells, protein, replicates): 31 pg/mL and 44.92 pg/mL and 38.72 pg/mL and 36.69 pg/mL and 44.27 pg/mL and 53.91 pg/mL and 47.57 pg/mL and 30.74 pg/mL and 39.61 pg/mL
concentration of free TCS in the colon digesta ([4]; 1 ppm TCS in diet 4 weeks): 1.5 pmol/mg tissue
concentration of free TCS in the colon digesta ([4]; 10 ppm TCS in diet 4 weeks): 14.7 pmol/mg tissue
concentration of free TCS in the colon digesta ([4]; 80 ppm TCS in diet 4 weeks): 92.2 pmol/mg tissue
concentration of TCS, TCS-G, TCS-Sulfate ([4]; Cecum (digesta), 80 ppm TCS via diet 4 weeks): 109.26 pmol/mg and 94.56 pmol/mg and 76.97 pmol/mg
concentration of TCS, TCS-G, TCS-Sulfate ([4]; Feces, 10 ppm TCS in diet 4 weeks): 22.61 pmol/mg and 75.8 pmol/mg
concentration of TCS, TCS-G, TCS-Sulfate ([4]; Feces, 80 ppm TCS in diet 4 weeks): 290.88 pmol/mg and 142.03 pmol/mg
concentration of TCS, TCS-G, TCS-Sulfate ([4]; Heart, 80 ppm TCS via diet 4 weeks): 0.98 pmol/mg and 0.71 pmol/mg and 0.63 pmol/mg
concentration of TCS, TCS-G, TCS-Sulfate ([4]; SI 1st section (digesta), 80 ppm TCS via diet 4 weeks): 15.09 pmol/mg and 9.94 pmol/mg and 15.65 pmol/mg and 19.61 pmol/mg
concentration of TCS, TCS-G, TCS-Sulfate ([4]; SI 2nd section (digesta), 80 ppm TCS via diet 4 weeks): 19.75 pmol/mg and 18.37 pmol/mg and 9.51 pmol/mg and 14.12 pmol/mg and 15.69 pmol/mg and 13.92 pmol/mg and 18.94 pmol/mg and 9.21 pmol/mg and 13.42 pmol/mg and 3.48 pmol/mg
concentration of TCS, TCS-G, TCS-Sulfate ([4]; SI 3rd section (digesta), 80 ppm TCS via diet 4 weeks): 29.24 pmol/mg and 24.80 pmol/mg and 7.10 pmol/mg and 13.01 pmol/mg and 17.21 pmol/mg and 23.02 pmol/mg and 19.18 pmol/mg and 15.52 pmol/mg and 17.98 pmol/mg and 27.55 pmol/mg
concentration of TCS, TCS-G, TCS-Sulfate ([4]; SI 4th section (digesta), 80 ppm TCS via diet 4 weeks): 31.18 pmol/mg and 38.07 pmol/mg and 17.93 pmol/mg and 37.99 pmol/mg and 55.42 pmol/mg and 35.20 pmol/mg and 31.30 pmol/mg and 21.74 pmol/mg and 18.77 pmol/mg and 46.26 pmol/mg
share of TCS metabolites found ([4]; digesta of the 4th section of the mouse small intestine, 80 ppm TCS via diet 4 weeks): 36.9%
share of TCS metabolites found ([4]; fecal content, 80 ppm TCS via diet 4 weeks): 99.1%
share of detected TCS species present as free TCS ([4]; gut sections (colon digesta, cecum digesta, feces), 1, 10 and 80 ppm TCS via diet 4 weeks): 94-100%
TCS/TCSG in colon digesta [5]: 69.2572 and 105.161 and 114.057 and 134.536 and 118.012 and 116.121 and 236.945 and 380.254 and 130.474 and 139.078
tcs, tcs-G in colon digesta ([6]; CONV Swiss Webster mice): 35.08 pmol/mg and 44.23 pmol/mg and 53.2 pmol/mg and 70.03 pmol/mg and 36.57 pmol/mg and 25.88 pmol/mg and 61.48 pmol/mg and 14.87 pmol/mg
tcs, tcs-G in colon digesta ([6]; GF Swiss Webster mice): 1.71 pmol/mg and 1.97 pmol/mg and 2.79 pmol/mg and 1.05 pmol/mg and 1.69 pmol/mg
